Experiment: Human HepG2 cell viability assay in 384 well format
Assay type: toxicity, cell-based
Design: dose 125 nL, time 70.5 hour; concentration not given beside the values
Settings: HepG2 cells, read-out: Inhibition

**Q.** Which cytotoxicity at 70.5 h does the source give for `CN1CCN(c2ccccc2NC(=O)NCCc2ccccc2)CC1` here?
**A.** -5.11%

**Q.** Which cytotoxicity at 70.5 h does the source give for `CCC(NC(=O)CNCC(F)(F)F)c1cc(F)ccc1F` (stereo unspecified) here?
**A.** -6.5%

**Q.** With `CCC(NC(=O)NCC(=O)NC(C)C)c1cc(F)ccc1F` (stereo unspecified) as the molecule, how does the cytotoxicity at 70.5 h read?
**A.** -3.83%

**Q.** Which cytotoxicity at 70.5 h does the source give for `CC(C)c1ncc(Cl)c(C(=O)N2CCN3CCCCC3C2)n1` (stereo unspecified) here?
**A.** 36.2%

**Q.** For `CCCOc1cc(F)ccc1NC(=O)NCc1noc(C)n1`, which cytotoxicity at 70.5 h is on record?
**A.** -3.88%

**Q.** With `CN1CCN(c2ccccc2NC(=O)NCCc2ccc(O)cc2)CC1` as the molecule, how does the cytotoxicity at 70.5 h read?
**A.** -6.51%

**Q.** With `CC(C)c1ncc(Cl)c(C(=O)N2CCCN3CCCC3C2)n1` (stereo unspecified) as the molecule, how does the cytotoxicity at 70.5 h read?
**A.** -0.691%

**Q.** For `COCCOCC(=O)Nc1ccnn1-c1ccc(Cl)cc1`, which cytotoxicity at 70.5 h is on record?
**A.** -0.967%

**Q.** For `CCC(C)(C)NC(=O)Cn1nnc(CN(C)C(=O)c2ccccc2)n1`, which cytotoxicity at 70.5 h is on record?
**A.** -3.46%

**Q.** With `O=C(CN(CC1CCC1)CC(F)(F)F)N1CCCC1` as the molecule, how does the cytotoxicity at 70.5 h read?
**A.** -6.18%

**Q.** For `CSCCN1C(=O)CC(C)(c2ccc(Br)cc2)C1=O` (stereo unspecified), which cytotoxicity at 70.5 h is on record?
**A.** -5.43%

**Q.** With `Cc1nnc(CSCc2ccc(OCC(F)(F)F)nc2)o1` as the molecule, how does the cytotoxicity at 70.5 h read?
**A.** -4.42%

**Q.** With `Cc1ccc(OCC(O)COC2CCOCC2)c(Cl)c1` (stereo unspecified) as the molecule, how does the cytotoxicity at 70.5 h read?
**A.** -0.327%

**Q.** With `CCc1nc(CN2CCCC2C(=O)NC)cs1` (stereo unspecified) as the molecule, how does the cytotoxicity at 70.5 h read?
**A.** -0.35%

**Q.** For `Cc1ccc(OCC(O)COC2CCOCC2)c(Br)c1` (stereo unspecified), which cytotoxicity at 70.5 h is on record?
**A.** -10.6%

**Q.** With `Cc1noc(C(C)SCc2ccccn2)n1` (stereo unspecified) as the molecule, how does the cytotoxicity at 70.5 h read?
**A.** -8.37%

**Q.** Which cytotoxicity at 70.5 h does the source give for `CSCCC(NC(=O)c1ccccc1)C(=O)N(C)Cc1ccsc1` (stereo unspecified) here?
**A.** -7%

**Q.** Which cytotoxicity at 70.5 h does the source give for `CC(NC(=O)C1CC1)C(=O)N(C)Cc1ccsc1` (stereo unspecified) here?
**A.** -5.83%

**Q.** For `Cc1n[nH]c(C)c1NC(=O)NCc1ccccn1`, which cytotoxicity at 70.5 h is on record?
**A.** -8.47%

**Q.** For `CN(C)S(=O)(=O)NCC1CCN(Cc2ccccc2F)CC1`, which cytotoxicity at 70.5 h is on record?
**A.** -9.47%

**Q.** For `COc1ccccc1CCN(C)Cc1nc(N)nc(N(C)C)n1`, which cytotoxicity at 70.5 h is on record?
**A.** -11.2%

**Q.** Which cytotoxicity at 70.5 h does the source give for `Cn1cc(NC(=O)Cc2ccccc2Br)cc1C(N)=O` here?
**A.** -2.69%

**Q.** For `CCCc1nc(C)c(C(=O)NS(=O)(=O)c2ccc(C#N)cc2)s1`, which cytotoxicity at 70.5 h is on record?
**A.** -5.99%

**Q.** With `CN(Cc1nnc(C2CC2)n1C)C(=O)c1ccnc(OC2CCC2)c1` as the molecule, how does the cytotoxicity at 70.5 h read?
**A.** -10.6%

**Q.** Which cytotoxicity at 70.5 h does the source give for `Cn1cc(Br)c(=O)c(NS(=O)(=O)c2cc(F)ccc2Cl)c1` here?
**A.** 6.1%

**Q.** With `Cc1cc(C)c2c(OCC(=O)NC(C)C)nn(C)c2n1` as the molecule, how does the cytotoxicity at 70.5 h read?
**A.** 14.7%

**Q.** Which cytotoxicity at 70.5 h does the source give for `CCN(CC)C(=O)CCNC(=O)N1CCC(c2ccccc2)C1` (stereo unspecified) here?
**A.** -6.27%

**Q.** With `CCc1nc(CN(C)CC2CCN(CCO)CC2)no1` as the molecule, how does the cytotoxicity at 70.5 h read?
**A.** -9.2%

**Q.** Which cytotoxicity at 70.5 h does the source give for `Cc1cc(CN2CCN(C(=O)CCc3cccc(F)c3F)CC2)on1` here?
**A.** -6.52%

**Q.** For `CN(CCOc1cccc(CN)c1)C1CCOCC1`, which cytotoxicity at 70.5 h is on record?
**A.** -8.25%

**Q.** For `O=C(CCc1ccsc1)NCC1CCN(c2ccccc2)C1` (stereo unspecified), which cytotoxicity at 70.5 h is on record?
**A.** 2.35%

**Q.** For `CC(Cn1cccn1)NC(=O)Nc1ccc(F)cc1` (stereo unspecified), which cytotoxicity at 70.5 h is on record?
**A.** -4.1%

**Q.** With `O=C1CN(Cc2nnc(-c3ccc(Br)o3)o2)CCN1` as the molecule, how does the cytotoxicity at 70.5 h read?
**A.** -7.06%

**Q.** With `CC(Cn1cccn1)NC(=O)Nc1ccc(N(C)C)nc1` (stereo unspecified) as the molecule, how does the cytotoxicity at 70.5 h read?
**A.** 19.1%

**Q.** Which cytotoxicity at 70.5 h does the source give for `Cc1cc(NC(=O)NCCc2cccs2)n(C)n1` here?
**A.** -1.92%

**Q.** For `Cc1cnc(C(=O)N(CCN(C)C)Cc2ccc(Cl)cc2)cn1`, which cytotoxicity at 70.5 h is on record?
**A.** -6.08%

**Q.** With `CCC(C)NC(=O)Nc1ccc(CN2CCOC2=O)cc1` (stereo unspecified) as the molecule, how does the cytotoxicity at 70.5 h read?
**A.** 18.8%

**Q.** For `O=C(NCCCO)Nc1cccc(Cl)c1F`, which cytotoxicity at 70.5 h is on record?
**A.** -8.31%

**Q.** With `CCOc1cc(C)nc(N2CCN(Cc3nccn3C)CC2)n1` as the molecule, how does the cytotoxicity at 70.5 h read?
**A.** -0.961%

**Q.** Which cytotoxicity at 70.5 h does the source give for `Cn1ccnc1-c1cccc(NC(=O)NCCN2CCOCC2)c1` here?
**A.** -3.53%

**Q.** With `Cc1ccc(NC(=O)Cn2cc(I)cn2)cc1` as the molecule, how does the cytotoxicity at 70.5 h read?
**A.** 15.3%

**Q.** For `CN(C)C(=O)CNC(=O)Nc1cccc(Cl)c1SC(F)F`, which cytotoxicity at 70.5 h is on record?
**A.** -4.52%

**Q.** With `Cn1nc2c(cc1=O)CN(CC(=O)Nc1ccc(Cl)cn1)CC2` as the molecule, how does the cytotoxicity at 70.5 h read?
**A.** -3.49%

**Q.** Which cytotoxicity at 70.5 h does the source give for `Cn1cc(-c2csc(N3CCOCC3)n2)cn1` here?
**A.** -3.47%

**Q.** Which cytotoxicity at 70.5 h does the source give for `CS(=O)(=O)CCSc1cccc(C#N)c1` here?
**A.** -4.4%

**Q.** For `Cn1cc(-c2csc(N3CCN(C(=O)OC(C)(C)C)CC3)n2)cn1`, which cytotoxicity at 70.5 h is on record?
**A.** -2.04%

**Q.** With `O=C(Nc1ccnc(OC2CCOC2)c1)C1CCC1` (stereo unspecified) as the molecule, how does the cytotoxicity at 70.5 h read?
**A.** -2.33%

**Q.** For `CC(C)c1cnc(CNc2c(F)cccc2-n2cccn2)o1`, which cytotoxicity at 70.5 h is on record?
**A.** -4.44%

**Q.** For `COCc1ccccc1NC(=O)[C@@H]1CCCN1C(=O)c1ccco1`, which cytotoxicity at 70.5 h is on record?
**A.** -8.02%

**Q.** Which cytotoxicity at 70.5 h does the source give for `Cc1n[nH]c(C2CN(CC(=O)NCCc3ccsc3)CCO2)n1` (stereo unspecified) here?
**A.** -1.23%

**Q.** Which cytotoxicity at 70.5 h does the source give for `O=C(c1ccc(Br)o1)N1CCN(Cc2ccc(OC(F)(F)F)cc2)CC1` here?
**A.** -2.19%

**Q.** Which cytotoxicity at 70.5 h does the source give for `CC(C)COC(C)C(=O)N1CCN(S(C)(=O)=O)CC1` (stereo unspecified) here?
**A.** -0.767%

**Q.** For `CN(C)S(=O)(=O)N1CCN(c2nccc(C(F)(F)F)n2)CC1`, which cytotoxicity at 70.5 h is on record?
**A.** -0.547%

**Q.** Which cytotoxicity at 70.5 h does the source give for `CCc1noc(C(C)N(C)CC(=O)Nc2c(C)cccc2C)n1` (stereo unspecified) here?
**A.** -4.56%

**Q.** With `COc1ccc(NC(=O)N2CCN(c3ncccn3)CC2)cn1` as the molecule, how does the cytotoxicity at 70.5 h read?
**A.** -5.14%

**Q.** Which cytotoxicity at 70.5 h does the source give for `CCSc1cc(C(=O)NCCC(=O)Nc2ccccn2)ccn1` here?
**A.** -3.16%

**Q.** For `Cc1ccc(C(=O)NC(C)CN2CCCC2=O)c(=O)[nH]1` (stereo unspecified), which cytotoxicity at 70.5 h is on record?
**A.** -5.25%

**Q.** For `Cc1nn(C)c(N(C)C)c1CNCC(O)c1ccccc1` (stereo unspecified), which cytotoxicity at 70.5 h is on record?
**A.** 0.0769%

**Q.** For `CC(C#N)CSc1ccccc1NCC(=O)Nc1ccc(F)cc1` (stereo unspecified), which cytotoxicity at 70.5 h is on record?
**A.** 2.62%

**Q.** With `COc1ccc(NC(C)C(=O)N2CCN(c3ncccn3)CC2)cn1` (stereo unspecified) as the molecule, how does the cytotoxicity at 70.5 h read?
**A.** 2.09%

**Q.** Which cytotoxicity at 70.5 h does the source give for `NS(=O)(=O)N1CCc2ccc(NC(=O)Cc3ccc(F)cc3)cc21` here?
**A.** 6.47%

**Q.** For `COCC(NC(=O)c1cc[nH]n1)c1cccc(C(F)(F)F)c1` (stereo unspecified), which cytotoxicity at 70.5 h is on record?
**A.** -0.606%

**Q.** Which cytotoxicity at 70.5 h does the source give for `Cc1ccc(S(=O)(=O)NC(=O)c2cccc3c2OCCO3)c(C)c1` here?
**A.** -3.86%

**Q.** With `Cc1ccn(-c2ccccc2NCc2ncc[nH]2)n1` as the molecule, how does the cytotoxicity at 70.5 h read?
**A.** 3.45%

**Q.** Which cytotoxicity at 70.5 h does the source give for `CCSc1cc(C(=O)NCc2ccccc2O)ccn1` here?
**A.** -4.36%

**Q.** With `CC(c1cccnc1)N(C)Cc1csc(-c2ccccn2)n1` (stereo unspecified) as the molecule, how does the cytotoxicity at 70.5 h read?
**A.** 8.67%

**Q.** With `CC(C)(C)C(=O)NCCC(=O)NC(C)(C)c1ccc2c(c1)OCCO2` as the molecule, how does the cytotoxicity at 70.5 h read?
**A.** 1.98%

**Q.** With `CC(OCC(F)(F)F)C(=O)N1CCCCC1` (stereo unspecified) as the molecule, how does the cytotoxicity at 70.5 h read?
**A.** 0.611%

**Q.** For `CCc1noc(C(C)N(C)CC(=O)Nc2ccc(C)cc2)n1` (stereo unspecified), which cytotoxicity at 70.5 h is on record?
**A.** -4.51%

**Q.** Which cytotoxicity at 70.5 h does the source give for `CCc1nc(CN2CCCC(N(C)Cc3cnc(C)s3)C2)no1` (stereo unspecified) here?
**A.** -2%

**Q.** With `Cc1ccn(-c2ccccc2NCc2cccnc2C)n1` as the molecule, how does the cytotoxicity at 70.5 h read?
**A.** -7.82%

**Q.** With `O=C(CCc1ccccn1)N1CCc2cc(Cl)cc(Cl)c2C1` as the molecule, how does the cytotoxicity at 70.5 h read?
**A.** 29.3%

**Q.** For `CCc1nc(CN2CCCN(c3nc4ccccc4o3)CC2)no1`, which cytotoxicity at 70.5 h is on record?
**A.** 6.35%

**Q.** Which cytotoxicity at 70.5 h does the source give for `O=C(c1cccc(NCCO)c1)N1CCOCC1` here?
**A.** 6.48%

**Q.** Which cytotoxicity at 70.5 h does the source give for `Cc1cc(CNC2CCCN(c3cccnn3)C2)no1` (stereo unspecified) here?
**A.** 5.47%

**Q.** With `NC(=O)c1ccc(N2CCCCC2)c(NC(=O)c2cncc(Br)c2)c1` as the molecule, how does the cytotoxicity at 70.5 h read?
**A.** -7.05%

**Q.** Which cytotoxicity at 70.5 h does the source give for `N#Cc1ccc(OCCOc2ccccc2C(=O)N2CCOCC2)cc1` here?
**A.** -9.24%

**Q.** For `NC(=O)C1CCN(Cn2nc(-c3ccccc3)oc2=O)CC1`, which cytotoxicity at 70.5 h is on record?
**A.** -8.01%

**Q.** With `CS(=O)(=O)NCC1CCCN(Cc2ccc(F)c3cccnc23)C1` (stereo unspecified) as the molecule, how does the cytotoxicity at 70.5 h read?
**A.** -12.2%

**Q.** For `Cc1ccc(C(=O)NC2CCN(Cc3noc(CC(C)C)n3)CC2)s1`, which cytotoxicity at 70.5 h is on record?
**A.** 7.31%

**Q.** Which cytotoxicity at 70.5 h does the source give for `Cc1ccc(-n2nnc(CC(=O)N3CCOCC3)c2C)cc1` here?
**A.** -10.7%

**Q.** For `C[C@H]1C[C@@H]2CCN(Cc3ccco3)C[C@H]2O1`, which cytotoxicity at 70.5 h is on record?
**A.** -7.2%

**Q.** With `CNC1CCCN(Cc2noc(C3CC3)n2)C1` (stereo unspecified) as the molecule, how does the cytotoxicity at 70.5 h read?
**A.** -7.48%

**Q.** With `CCC(=O)N1CCC2(CC1)COCCN2Cc1ccc(F)cc1` as the molecule, how does the cytotoxicity at 70.5 h read?
**A.** -10.7%

**Q.** For `CNC(=O)CN1CCOCC12CCN(C(=O)c1ccccc1)CC2`, which cytotoxicity at 70.5 h is on record?
**A.** -5.33%

**Q.** Which cytotoxicity at 70.5 h does the source give for `C[C@H]1C[C@H]2CN(Cc3ccccn3)CC[C@@H]2O1` here?
**A.** -3.43%
